The text below walks through data of patent US20240383874A1, “BENZENE RING DERIVATIVE, AND COMPOSITION AND PHARMACEUTICAL USE THEREOF” (Xizang Haisco Pharmaceutical Co., Ltd., priority 2020, published 2024).

Where a name gives a salt, the structure may show the parent alone.

In the first experiment the test system is 22RV1 cells. As to the kind of experiment: Experiment 2 on inhibiting 22RV1 cell proliferation (7 days, CellTiter-Glo). The format is cell-based. The conditions noted are these: 1% css-FBS phenol red-free medium, incubated with compound 7 days, read-out: IC50 values on proliferation inhibition of 22RV1 cells. In a few lines:
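Survival measured by CellTiter-Glo after 7 days of compound exposure, normalised to DMSO controls, with IC50 fitted by dose-response. Cells (22RV1, 2000/well) were seeded overnight in 1% css-FBS phenol red-free medium before dosing.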
`CC(C)(c1ccc(OCc2ccnc(N3CC4(CCN(C5CCN(CC6CCN(c7ccc8c(c7)C(=O)N(C7CCC(=O)NC7=O)C8=O)CC6)CC5)CC4)C3)n2)cc1)c1cc(Cl)c(OCCCl)c(C#N)c1` (stereo not drawn) [Compound 24, 3-chloro-2-(2-chloroethoxy)-5-(2-(4-((2-(7-(1-((1-(2-(2,6-dioxopiperidin-3-yl)-1,3-dioxoisoindolin-5-yl)piperidin-4-yl)methyl)piperidin-4-yl)-2,7-diazaspiro[3.5]nonan-2-yl)pyrimidin-4-yl)methoxy)phenyl)propan-2-yl)benzonitrile]: the IC50 is 0.569 µM.

Staying with this experiment, now noted: Homo sapiens, 22Rv1, 168 h, 1% css-FBS phenol red-free medium, incubated with compound 7 days, read-out: IC50 values on proliferation inhibition of 22RV1 cells.
For the compound `Cc1ncsc1-c1ccc([C@H](C)NC(=O)[C@@H]2C[C@@H](O)CN2C(=O)[C@@H](NC(=O)CN2CCC(CN3CCN(c4nccc(COc5ccc(C(C)(C)c6cc(Cl)cc(C#N)c6)cc5)n4)CC3)CC2)C(C)(C)C)cc1` [Compound 51 trifluoroacetate, (2S,4R)-1-((S)-2-(2-(4-((4-(4-((4-(2-(3-chloro-5-cyanophenyl)propan-2-yl)phenoxy)methyl)pyrimidin-2-yl)piperazin-1-yl)methyl)piperidin-1-yl)acetamido)-3,3-dimethylbutanoyl)-4-hydroxy-N-((S)-1-(4-(4-methylthiazol-5-yl)phenyl)ethyl)pyrrolidine-2-carboxamide], the IC50 is 0.825 µM.

For `CC(C)(c1ccc(OCc2ccnc(N3CC4CN(CC5CCN(c6ccc7c(c6)C(=O)N(C6CCC(=O)NC6=O)C7=O)CC5)CC4C3)n2)cc1)c1cc(Cl)cc(C#N)c1` (stereo not drawn) [Compound 72 trifluoroacetate, 3-chloro-5-(2-(4-((2-(5-((1-(2-(2,6-dioxopiperidin-3-yl)-1,3-dioxoisoindolin-5-yl)piperidin-4-yl)methyl)hexahydropyrrolo[3,4-c]pyrrol-2(1H)-yl)pyrimidin-4-yl)methoxy)phenyl)propan-2-yl)benzonitrile], the IC50 worked out at 0.464 µM.

Take `CC(C)(c1ccc(OCc2ccnc(N3CCN(C4CCN(CC5CCN(c6ccc7c(c6)C(=O)N(C6CCC(=O)NC6=O)C7=O)CC5)CC4)CC3)n2)cc1)c1cc(Cl)cc(C#N)c1` (stereo not drawn) [Compound 49 trifluoroacetate, 3-chloro-5-(2-(4-((2-(4-(1-((1-(2-(2,6-dioxopiperidin-3-yl)-1,3-dioxoisoindolin-5-yl)piperidin-4-yl)methyl)piperidin-4-yl)piperazin-1-yl)pyrimidin-4-yl)methoxy)phenyl)propan-2-yl)benzonitrile]: the IC50 was found to be 0.494 µM.

Take `CC(C)(c1ccc(OCc2ccnc(N3CCN(C4CN(C5CCN(c6ccc7c(c6)C(=O)N(C6CCC(=O)NC6=O)C7=O)C5)C4)CC3)n2)cc1)c1cc(Cl)cc(C#N)c1` (stereo not drawn) [Compound 55 trifluoroacetate, 3-chloro-5-(2-(4-((2-(4-(1-(1-(2-(2,6-dioxopiperidin-3-yl)-1,3-dioxoisoindolin-5-yl)pyrrolidin-3-yl)azetidin-3-yl)piperazin-1-yl)pyrimidin-4-yl)methoxy)phenyl)propan-2-yl)benzonitrile]: the IC50 was 0.519 µM.

Turning to `CC(C)(c1ccc(OCc2ccnc(N3CCC(C4CCN(CC5CCN(c6ccc7c(c6)C(=O)N(C6CCC(=O)NC6=O)C7=O)CC5)CC4)CC3)n2)cc1)c1cc(Cl)cc(C#N)c1` (stereo not drawn) [Compound 38 trifluoroacetate, 3-chloro-5-(2-(4-((2-(1′-((1-(2-(2,6-dioxopiperidin-3-yl)-1,3-dioxoisoindolin-5-yl)piperidin-4-yl)methyl)-[4,4′-bipiperidin]-1-yl)pyrimidin-4-yl)methoxy)phenyl)propan-2-yl)benzonitrile], the IC50 was found to be 0.883 µM.

As to `Cn1c(=O)n(C2CCC(=O)NC2=O)c2cccc(C3CCN(CC4(F)CCN(C5CCN(c6nccc(COc7ccc(C(C)(C)c8cc(Cl)cc(C#N)c8)cc7)n6)CC5)CC4)CC3)c21` (stereo not drawn) [Compound 124 trifluoroacetate, 3-chloro-5-(2-(4-((2-(4-((4-(1-(2,6-dioxopiperidin-3-yl)-3-methyl-2-oxo-2,3-dihydro-1H-benzo[d]imidazol-4-yl)piperidin-1-yl)methyl)-4-fluoro-[1,4′-bipiperidin]-1′-yl)pyrimidin-4-yl)methoxy)phenyl)propan-2-yl)benzonitrile], the IC50 stood at 0.576 µM.

As to `CC(C)(c1ccc(OCc2ccnc(N3CCC(CN4CCN(c5cccc6c5C(=O)N(C5CCC(=O)NC5=O)C6=O)CC4)CC3)n2)cc1)c1cc(Cl)cc(C#N)c1` (stereo not drawn) [Compound 39 trifluoroacetate, 3-chloro-5-(2-(4-((2-(4-((4-(2-(2,6-dioxopiperidin-3-yl)-1,3-dioxoisoindolin-4-yl)piperazin-1-yl)methyl)piperidin-1-yl)pyrimidin-4-yl)methoxy)phenyl)propan-2-yl)benzonitrile], the IC50 is 0.936 µM.

Regarding `CC(C)(c1ccc(OCc2ccnc(N3CCN(C4CN(CC5CN(c6ccc7c(c6)C(=O)N(C6CCC(=O)NC6=O)C7=O)C5)C4)CC3)n2)cc1)c1cc(Cl)cc(C#N)c1` (stereo not drawn) [Compound 57 trifluoroacetate, 3-chloro-5-(2-(4-((2-(4-(1-((1-(2-(2,6-dioxopiperidin-3-yl)-1,3-dioxoisoindolin-5-yl)azetidin-3-yl)methyl)azetidin-3-yl)piperazin-1-yl)pyrimidin-4-yl)methoxy)phenyl)propan-2-yl)benzonitrile], the IC50 worked out at 0.687 µM.

For the compound `CC(C)(c1ccc(OCc2ccnc(N3CC4CN(CC5CN(c6ccc7c(c6)C(=O)N(C6CCC(=O)NC6=O)C7=O)C5)CC4C3)n2)cc1)c1cc(Cl)cc(C#N)c1` (stereo not drawn) [Compound 73 trifluoroacetate, 3-chloro-5-(2-(4-((2-(5-((1-(2-(2,6-dioxopiperidin-3-yl)-1,3-dioxoisoindolin-5-yl)azetidin-3-yl)methyl)hexahydropyrrolo[3,4-c]pyrrol-2(1H)-yl)pyrimidin-4-yl)methoxy)phenyl)propan-2-yl)benzonitrile], the IC50 amounted to 0.097 µM.

Consider `CC(C)(c1ccc(OCc2ccnc(N3CCN(C4CCN(CC5CCN(c6ccc7c(c6)C(=O)N(C6CCC(=O)NC6=O)C7=O)CC5)C4)CC3)n2)cc1)c1cc(Cl)cc(C#N)c1` (stereo not drawn) [Compound 63 trifluoroacetate, 3-chloro-5-(2-(4-((2-(4-(1-((1-(2-(2,6-dioxopiperidin-3-yl)-1,3-dioxoisoindolin-5-yl)piperidin-4-yl)methyl)pyrrolidin-3-yl)piperazin-1-yl)pyrimidin-4-yl)methoxy)phenyl)propan-2-yl)benzonitrile], for which the IC50 was 0.593 µM.

Turning to `CC(C)(c1ccc(OCc2ccnc(N3CCC4(CC3)CN(C3CCN(C5CN(c6ccc7c(c6)C(=O)N(C6CCC(=O)NC6=O)C7=O)C5)CC3)C4)n2)cc1)c1cc(Cl)cc(C#N)c1` (stereo not drawn) [Compound 75 trifluoroacetate, 3-chloro-5-(2-(4-((2-(2-(1-(1-(2-(2,6-dioxopiperidin-3-yl)-1,3-dioxoisoindolin-5-yl)azetidin-3-yl)piperidin-4-yl)-2,7-diazaspiro[3.5]nonan-7-yl)pyrimidin-4-yl)methoxy)phenyl)propan-2-yl)benzonitrile], the IC50 stood at 0.275 µM.

Regarding `Cc1ncsc1-c1ccc([C@H](C)NC(=O)[C@@H]2C[C@@H](O)CN2C(=O)[C@@H](NC(=O)CN2CCC(CN3CCC(N4CCN(c5nccc(COc6ccc(C(C)(C)c7cc(Cl)cc(C#N)c7)cc6)n5)CC4)CC3)CC2)C(C)(C)C)cc1` [Compound 50 trifluoroacetate, (2S,4R)-1-((S)-2-(2-(4-((4-(4-(4-((4-(2-(3-chloro-5-cyanophenyl)propan-2-yl)phenoxy)methyl)pyrimidin-2-yl)piperazin-1-yl)piperidin-1-yl)methyl)piperidin-1-yl)acetamido)-3,3-dimethylbutanoyl)-4-hydroxy-N-((S)-1-(4-(4-methylthiazol-5-yl)phenyl)ethyl)pyrrolidine-2-carboxamide], the IC50 is 0.398 µM.

As to `CC(C)(c1ccc(OCc2ccnc(N3CC4(CCN(CC5CCN(c6ccc7c(c6)C(=O)N(C6CCC(=O)NC6=O)C7=O)CC5)CC4)C3)n2)cc1)c1cc(Cl)cc(C#N)c1` (stereo not drawn) [Compound 69 trifluoroacetate, 3-chloro-5-(2-(4-((2-(7-((1-(2-(2,6-dioxopiperidin-3-yl)-1,3-dioxoisoindolin-5-yl)piperidin-4-yl)methyl)-2,7-diazaspiro[3.5]nonan-2-yl)pyrimidin-4-yl)methoxy)phenyl)propan-2-yl)benzonitrile], the IC50 stood at 0.371 µM.

For `CCOc1c(Cl)cc(C(C)(C)c2ccc(OCc3ccnc(N4CCC5(CC4)CC(N4CCC(c6ccc7c(c6)n(C)c(=O)n7C6CCC(=O)NC6=O)CC4)C5)n3)cc2)cc1C#N` (stereo not drawn) [Compound 107 trifluoroacetate, 3-chloro-5-(2-(4-((2-(2-(4-(1-(2,6-dioxopiperidin-3-yl)-3-methyl-2-oxo-2,3-dihydro-1H-benzo[d]imidazol-5-yl)piperidin-1-yl)-7-azaspiro[3.5]nonan-7-yl)pyrimidin-4-yl)methoxy)phenyl)propan-2-yl)-2-ethoxybenzonitrile], the IC50 was determined as 0.526 µM.
